Assay results taken from ChEMBL document CHEMBL1681651, “A broad spectrum anticancer nucleoside with selective toxicity against human colon cells in vitro” (2011).

Legend:
Format in all cases: functional
A498 = test: Growth inhibition of human A498 cells assessed as cell growth at 1 uM after 48 hrs by SRB assay; conditions: A498, 48 h, read-out: Activity
RXF 393 = test: Growth inhibition of human RXF393 cells assessed as cell growth at 1 uM after 48 hrs by SRB assay; conditions: RXF 393, 48 h, read-out: Activity
T47D = test: Growth inhibition of human T47D cells assessed as cell growth at 1 uM after 48 hrs by SRB assay; conditions: read-out: Activity
CCRF-CEM = test: Growth inhibition of human CCRF-CEM cells after 48 hrs by […] growth inhibition assay
HCC 2998 [1] = test: Growth inhibition of human HCC2998 cells after 48 hrs by […] growth inhibition assay; conditions: HCC 2998, 48 h
HCT-15 [2] = test: Growth inhibition of human HCT15 cells after 48 hrs by […] growth inhibition assay; conditions: HCT-15, 48 h
M14 [3] = test: Growth inhibition of human M14 cells after 48 hrs by […] growth inhibition assay; conditions: M14, 48 h
UACC-257 = test: Growth inhibition of human UACC257 cells after 48 hrs by […] growth inhibition assay; conditions: UACC-257, 48 h
U-251 = test: Growth inhibition of human U251 cells after 48 hrs by […] growth inhibition assay; conditions: U-251, 48 h
SN12C = test: Growth inhibition of human SN12C cells after 48 hrs by […] growth inhibition assay
[4] = Growth inhibition of human […] cells assessed as cell growth at 0.1 uM after 48 hrs by SRB assay; conditions: read-out: Activity
NCI-H522 = test: Growth inhibition of human NCI-H522 cells assessed as cell growth at 0.1 uM after 48 hrs by SRB assay; conditions: NCI-H522, 48 h, read-out: Activity
HCC 2998 [5] = test: Growth inhibition of human HCC2998 cells assessed as cell growth at 0.1 uM after 48 hrs by SRB assay; conditions: HCC 2998, 48 h, read-out: Activity
HCT-15 [6] = test: Growth inhibition of human HCT15 cells assessed as cell growth at 0.1 uM after 48 hrs by SRB assay; conditions: HCT-15, 48 h, read-out: Activity
DU-145 [7] = test: Growth inhibition of human DU145 cells assessed as cell growth at 0.1 uM after 48 hrs by SRB assay; conditions: DU-145, 48 h, read-out: Activity
MDA-MB-435 [8] = test: Growth inhibition of human MDA-MB-435 cells assessed as cell growth at 0.1 uM after 48 hrs by SRB assay; conditions: MDA-MB-435, 48 h, read-out: Activity
SK-MEL-2 = test: Growth inhibition of human SK-MEL-2 cells assessed as cell growth at 10 uM after 48 hrs by SRB assay; conditions: SK-MEL-2, 48 h, read-out: Activity
UACC-62 [9] = test: Growth inhibition of human UACC62 cells assessed as cell growth at 10 uM after 48 hrs by SRB assay; conditions: UACC-62, 48 h, read-out: Activity
NCI-H226 = test: Growth inhibition of human NCI-H226 cells assessed as cell growth at 100 uM after 48 hrs by SRB assay; conditions: NCI-H226, 48 h, read-out: Activity
NCI-H322M [10] = test: Growth inhibition of human NCI-H322M cells assessed as cell growth at 100 uM after 48 hrs by SRB assay; conditions: read-out: Activity
SF-539 = test: Growth inhibition of human SF539 cells assessed as cell growth at 100 uM after 48 hrs by SRB assay; conditions: SF-539, 48 h, read-out: Activity
M14 [11] = test: Growth inhibition of human M14 cells assessed as cell growth at 100 uM after 48 hrs by SRB assay; conditions: M14, 48 h, read-out: Activity
UACC-62 [12] = test: Growth inhibition of human UACC62 cells assessed as cell growth at 100 uM after 48 hrs by SRB assay; conditions: UACC-62, 48 h, read-out: Activity
MDA-MB-435 [13] = test: Growth inhibition of human MDA-MB-435 cells assessed as cell growth at 100 uM after 48 hrs by SRB assay; conditions: MDA-MB-435, 48 h, read-out: Activity
[14] = Growth inhibition of human […] cells assessed as cell growth at 1 mM after 48 hrs by SRB assay; conditions: read-out: Activity
NCI-H322M [15] = test: Growth inhibition of human NCI-H322M cells assessed as cell growth at 1 mM after 48 hrs by SRB assay; conditions: read-out: Activity
HT-29 = test: Growth inhibition of human HT-29 cells assessed as cell growth at 1 mM after 48 hrs by SRB assay; conditions: HT-29, 48 h, read-out: Activity
SK-MEL-5 = test: Growth inhibition of human SK-MEL-5 cells assessed as cell growth at 1 mM after 48 hrs by SRB assay; conditions: SK-MEL-5, 48 h, read-out: Activity
OVCAR-8 = test: Growth inhibition of human OVCAR8 cells assessed as cell growth at 1 mM after 48 hrs by SRB assay; conditions: OVCAR-8, 48 h, read-out: Activity
DU-145 [16] = test: Growth inhibition of human DU145 cells assessed as cell growth at 1 mM after 48 hrs by SRB assay; conditions: DU-145, 48 h, read-out: Activity
EKVX = test: Growth inhibition of human EKVX cells assessed as cell growth at 1 uM after 48 hrs by SRB assay; conditions: read-out: Activity
HOP-62 = test: Growth inhibition of human HOP62 cells assessed as cell growth at 1 uM after 48 hrs by SRB assay; conditions: HOP-62, 48 h, read-out: Activity
[17] = read-out: LC50 (the source's name)
[18] = read-out: pLC50 (the source's name) (converted)

CNC(=O)NC[C@H]1O[C@@H](n2cnc3c(NC(=O)Nc4ccccc4)ncnc32)[C@H](O[Si](C)(C)C(C)(C)C)[C@@H]1O[Si](C)(C)C(C)(C)C
growth at 1 µM (A498): 97% | growth at 1 µM (RXF 393): 73% | growth at 1 µM (T47D): 105% | GI50 (CCRF-CEM; read-out: GI50): 3.59 µM | LC50 (lethal concentration, 50% net cell kill) (CCRF-CEM; read-out: LC50): > 100 µM | TGI (CCRF-CEM; read-out: TGI): > 100 µM | GI50 (CCRF-CEM; read-out: pGI50 (converted)): 3.63 µM | LC50 (lethal concentration, 50% net cell kill) (CCRF-CEM; read-out: pLC50 (converted)): > 100 µM | TGI (CCRF-CEM; read-out: pTGI (converted)): > 100 µM | GI50 (HCC 2998 [1]; read-out: GI50): 2.02 µM | CC50 (HCC 2998 [1]; [17]): 6.99 µM | TGI (HCC 2998 [1]; read-out: TGI): 3.75 µM | GI50 (HCC 2998 [1]; read-out: pGI50 (converted)): 2 µM | CC50 (HCC 2998 [1]; [18]): 6.92 µM | TGI (HCC 2998 [1]; read-out: pTGI (converted)): 3.72 µM | GI50 (HCT-15 [2]; read-out: GI50): 3.62 µM | CC50 (HCT-15 [2]; [17]): > 100 µM | TGI (HCT-15 [2]; read-out: TGI): > 100 µM | GI50 (HCT-15 [2]; read-out: pGI50 (converted)): 3.63 µM | CC50 (HCT-15 [2]; [18]): > 100 µM | TGI (HCT-15 [2]; read-out: pTGI): > 100 µM | GI50 (M14 [3]; read-out: GI50): 4.33 µM | CC50 (M14 [3]; [17]): 93.8 µM | TGI (M14 [3]; read-out: TGI): 18.5 µM | GI50 (M14 [3]; read-out: pGI50 (converted)): 4.37 µM | CC50 (M14 [3]; [18]): 93.3 µM | TGI (M14 [3]; read-out: pTGI (converted)): 18.6 µM | GI50 (UACC-257; read-out: GI50): 3.78 µM | CC50 (UACC-257; [17]): > 100 µM | TGI (UACC-257; read-out: TGI): 20.2 µM | GI50 (UACC-257; read-out: pGI50 (converted)): 3.8 µM | CC50 (UACC-257; [18]): > 100 µM | TGI (UACC-257; read-out: pTGI (converted)): 20 µM | GI50 (U-251; read-out: GI50): 2.96 µM | CC50 (U-251; [17]): > 100 µM | TGI (U-251; read-out: TGI): 10.8 µM | GI50 (U-251; read-out: pGI50 (converted)): 2.95 µM | CC50 (U-251; [18]): > 100 µM | TGI (U-251; read-out: pTGI (converted)): 10.7 µM | GI50 (SN12C; read-out: GI50): 1.81 µM | CC50 (SN12C; [17]): 6.29 µM | TGI (SN12C; read-out: TGI): 3.38 µM | GI50 (SN12C; read-out: pGI50 (converted)): 1.82 µM | CC50 (SN12C; [18]): 6.31 µM | TGI (SN12C; read-out: pTGI (converted)): 3.39 µM | growth at 0.1 µM [4]: 102% | growth at 0.1 µM (NCI-H522): 92% | growth at 0.1 µM (HCC 2998 [5]): 100% | growth at 0.1 µM (HCT-15 [6]): 105% | growth at 0.1 µM (DU-145 [7]): 103% | growth at 0.1 µM (MDA-MB-435 [8]): 102% | growth at 10 µM (SK-MEL-2): 105% | growth at 10 µM (UACC-62 [9]): 90% | growth at 100 µM (NCI-H226): -7% | growth at 100 µM (NCI-H322M [10]): 39% | growth at 100 µM (SF-539): 7% | growth at 100 µM (M14 [11]): 19% | growth at 100 µM (UACC-62 [12]): 23% | growth at 100 µM (MDA-MB-435 [13]): 9% | growth at 1000 µM [14]: 4% | growth at 1000 µM (NCI-H322M [15]): 21% | growth at 1000 µM (HT-29): -100% | growth at 1000 µM (SK-MEL-5): -99% | growth at 1000 µM (OVCAR-8): -9% | growth at 1000 µM (DU-145 [16]): -89% | growth at 1 µM (EKVX): 111% | growth at 1 µM (HOP-62): 108%

CNC(=O)OC[C@H]1O[C@@H](n2cnc3c(NC(=O)Nc4ccccc4)ncnc32)[C@H](O[Si](C)(C)C(C)(C)C)[C@@H]1O[Si](C)(C)C(C)(C)C
growth at 10 µM (SK-MEL-2): 82.9% | growth at 10 µM (UACC-62 [9]): 106%
